# Experimental data taken from article PMC7591795, “Humulone Modulation of GABAA Receptors and Its Role in Hops Sleep-Promoting Activity” (Frontiers in Neuroscience, 2020).
# Like-named read-outs stand apart in the source and are kept apart here.
# Tests used:
# [1] = tested on: native GABAA receptors in rat forebrain membranes; test: [3H]EBOB binding assay, rat forebrain membranes; conditions: each compound 1 μM, GABA 3 μM, n = 3
# Experimental: (§1) The protein concentrations of brain membranes were determined with the Bio-Rad Coomassie blue dye-based protein assay kit (Hercules, CA, United States) as per the manufacturer’s protocol. Transfected HEK293 cells were harvested 48 h after transfection using a detaching buffer (10 mM Tris-HCl, 0.15 M NaCl, 2 mM EDTA) and centrifuged at 20,000 g for 10 min at +4 °C. The resulting pellets were suspended in the assay buffer for binding assays.
# (§2) In humulone concentration series with recombinant α6β3, α6β3γ2S, and α6β3δ receptors, HEK293 cell membranes were incubated in the same above conditions for 120 min with [^3H]EBOB (1 nM) and different concentrations of humulone (30 nM–30 μM) in the presence or absence of ethanol (30 mM). […] Picrotoxin (100 μM) was used to determine the non-specific binding in all assays.
# (§3) Membrane samples were filtered through Whatman GF/B glass fiber filters (Whatman International Ltd., Maidstone, United Kingdom) using a Brandel Cell Harvester (model M-24, Gaithersburg, MD, United States). The filters were rinsed three times with 5 mL of ice-cold 10 mM Tris-HCl, pH 7.4 buffer. Air-dried filters were immersed in 3 mL of Hidex AquaLight Beta scintillation liquid and radioactivity was determined in Hidex 600 SL liquid scintillation counter (Hidex, Turku, Finland).
# [2] = tested on: native GABAA receptors in rat cerebellar membranes; assay type: binding; conditions: humulone 1 μM + ethanol 30 mM; from Table 1
# Experimental: as §1, §2, §3
# [3] = molecular target: T1, recombinant α6β3γ2 GABAA receptors (Rattus norvegicus, UniProt P18508+P30191+P63079); test: [3H]EBOB binding assay, recombinant α6β3γ2 receptors in HEK293 cell membranes; conditions: GABA 3 μM
# T1 construct: expressed in transfected cells; host or cells: HEK293 cells, transient CaPO4 transfection, pRK5 plasmids; cell membranes used
# Experimental: (§4) The cells were divided and plated on 150 mm culture dishes for binding assays and 12 mm coverslips in 24-well cell culture plates for electrophysiology 24 h before transfection.
# (§5) The cells were transiently transfected with rat cDNAs encoding GABAA receptor subunits (α1, L08490; α6, L08495; β3, X15468; γ2S, L08497; δ, L08496) in pRK5 plasmids under the control of CMV promoter ([Uusi-Oukari et al., 2000]). The plasmids were used in 1:1 and 1:1:1 ratio for transfections containing α1β3γ2S, α6β3, α6β3γ2S, and α6β3δ receptor subtypes. […] (Supplementary Figure S1). For electrophysiology, K4® transfection system (Biontex, München, Germany) was used according to the manufacturer’s protocol to increase expression efficiency and cell viability. […] The medium was changed 24 h after transfection and all experiments were performed 48 h after transfection.
# as §1, §2, §3
# [4] = molecular target: T2, recombinant α6β3 GABAA receptors (Rattus norvegicus, UniProt P30191+P63079); test: [3H]EBOB binding assay, recombinant α6β3 receptors in HEK293 cell membranes; conditions: GABA 3 μM
# T2 construct: expressed in transfected cells; host or cells: HEK293 cells, transient CaPO4 transfection, pRK5 plasmids (1:1); cell membranes used
# Experimental: as §4, §5, §1, §2, §3
# BALB/cAnNRj mice [5] = test: Open field test (spontaneous locomotor activity); assay type: in vivo
# Experimental: Each mouse was then placed individually into the center of a brightly illuminated white Plexiglass arena (50 × 50 × 38 cm) and recorded continuously for 15 min with Ethovision version 13 tracking system (Noldus, Wageningen, The Netherlands). The parameters of locomotor activity such as distance and velocity were quantified and analyzed for the whole and subsections of the arena. All arena surfaces were thoroughly cleaned with 70% ethanol and dried between each tested subject.
# [6] = molecular target: native GABAA receptors in rat forebrain membranes; design: method as in Benkherouf et al., 2020; conditions: ref Benkherouf et al., 2020, cited from earlier work
# [7] = design: method as in Fritsch and Shellhammer, 2007; conditions: ref Fritsch and Shellhammer, 2007; cited from earlier work
# [8] = tested on: native αβγ2 GABAA receptors, classical benzodiazepine binding site; design: method as in Benkherouf et al., 2019, 2020; conditions: ref Benkherouf et al., 2019, 2020, cited from earlier work
# mice = tested on: mice; design: method as in Schiller et al., 2006; conditions: ref Schiller et al., 2006, cited from earlier work
# rats = conditions: ref Bejeuhr, 1993, cited from earlier work
# BALB/cAnNRj mice [9] = test: Ethanol-induced sleep test; conditions: ethanol 3.5 g/kg i.p.; for duration of sleep induced by ethanol: vs control
# [10] = humulone 10 mg/kg i.p. vs control
# [11] = humulone 20 mg/kg i.p., 45 min after administration, 15 min observation, vs vehicle, p < 0.01
# T2 sequence (P30191 20-453): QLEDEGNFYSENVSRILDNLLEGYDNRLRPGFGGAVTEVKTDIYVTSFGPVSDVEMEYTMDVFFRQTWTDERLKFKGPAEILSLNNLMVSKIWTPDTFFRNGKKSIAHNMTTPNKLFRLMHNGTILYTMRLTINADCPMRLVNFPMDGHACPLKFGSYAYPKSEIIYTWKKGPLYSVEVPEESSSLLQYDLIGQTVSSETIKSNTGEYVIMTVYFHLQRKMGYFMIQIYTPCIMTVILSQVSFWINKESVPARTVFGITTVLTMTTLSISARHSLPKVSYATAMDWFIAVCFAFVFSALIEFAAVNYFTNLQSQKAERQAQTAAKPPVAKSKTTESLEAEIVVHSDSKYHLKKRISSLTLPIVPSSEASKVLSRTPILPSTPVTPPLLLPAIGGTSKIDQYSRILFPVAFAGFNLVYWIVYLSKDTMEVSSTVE
# T2 sequence (P63079 26-473): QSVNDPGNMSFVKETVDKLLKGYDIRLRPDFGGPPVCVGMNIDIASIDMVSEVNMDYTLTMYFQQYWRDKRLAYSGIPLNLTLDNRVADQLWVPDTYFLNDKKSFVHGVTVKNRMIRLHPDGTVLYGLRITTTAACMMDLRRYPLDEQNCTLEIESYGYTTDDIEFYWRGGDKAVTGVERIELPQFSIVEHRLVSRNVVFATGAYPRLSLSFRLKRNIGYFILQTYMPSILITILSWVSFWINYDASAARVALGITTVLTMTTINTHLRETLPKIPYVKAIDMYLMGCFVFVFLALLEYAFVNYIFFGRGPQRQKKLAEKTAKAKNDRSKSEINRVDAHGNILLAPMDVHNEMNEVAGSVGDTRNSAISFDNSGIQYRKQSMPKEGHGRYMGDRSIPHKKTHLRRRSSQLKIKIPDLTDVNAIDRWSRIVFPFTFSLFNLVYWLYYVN
# T1 sequence (P30191 20-453): as the sequence (P30191 20-453) above
# T1 sequence (P63079 26-473): as the sequence (P63079 26-473) above
# T1 sequence (P18508 39-466): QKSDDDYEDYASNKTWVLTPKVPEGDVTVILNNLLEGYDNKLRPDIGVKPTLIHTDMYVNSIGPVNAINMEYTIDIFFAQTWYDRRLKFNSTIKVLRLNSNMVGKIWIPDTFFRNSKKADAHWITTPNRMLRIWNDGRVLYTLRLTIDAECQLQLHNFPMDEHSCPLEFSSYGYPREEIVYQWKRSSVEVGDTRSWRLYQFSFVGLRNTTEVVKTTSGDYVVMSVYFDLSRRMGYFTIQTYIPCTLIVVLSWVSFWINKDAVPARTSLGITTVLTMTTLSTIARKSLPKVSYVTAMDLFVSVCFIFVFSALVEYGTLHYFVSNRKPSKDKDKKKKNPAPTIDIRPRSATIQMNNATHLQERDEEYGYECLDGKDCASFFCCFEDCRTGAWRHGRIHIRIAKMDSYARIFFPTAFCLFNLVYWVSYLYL
smiles,measurement,setting,value
CC(C)=CCC1=C(O)[C@@](O)(CC=C(C)C)C(=O)C(C(=O)CC(C)C)=C1O [humulone],[3H]EBOB displacement normalized to the maximum radioligand binding in the presence of 3 μM GABA alone,[1],13.5 ± 1.5%
same,"extent of humulone non-competitive synergy with ethanol, cerebellum compared to forebrain",[2],11.2%
same,concentration at which potentiation of GABA-induced [3H]EBOB displacement was observed,[3],≥ 10 µM
same,effect on [3H]EBOB displacement induced by GABA,[3]; humulone 1 μM,absent
same,concentration at which potentiation of GABA-induced [3H]EBOB displacement was observed,[4],≥ 10 µM
same,effect on [3H]EBOB displacement induced by GABA,[4]; humulone 1 μM,absent
same,significant difference in average velocity in open field,BALB/cAnNRj mice [5]; [10],not observed
same,significant difference in total distance traveled in open field,BALB/cAnNRj mice [5]; [10],not observed
same,average velocity in open field,BALB/cAnNRj mice [5]; [11],lower
same,total distance traveled in open field,BALB/cAnNRj mice [5]; [11],shorter
same,time spent in periphery and center in open field,"BALB/cAnNRj mice [5]; humulone 10 and 20 mg/kg i.p. vs vehicle, Supplementary Figure S3",no differences
same,IC50,"[6]; rat forebrain membranes, read-out: IC50, modulation of [3H]EBOB binding",3.2 ± 0.4 µM
same,sensitivity of modulatory effect on [3H]EBOB binding to flumazenil antagonism,[6],insensitive
same,sensitivity of modulatory effect on [3H]EBOB binding to flumazenil antagonism,[6]; listed as humulone fraction,insensitivity
same,solubility in beer,[7],14 µg/mL
same,displacement of [3H]Ro 15-4513 binding (benzodiazepine binding site),[8],very weak displacement
same,displacement of [3H]Ro 15-4513 binding (benzodiazepine binding site),[8]; listed as humulone fraction,low potency
same,duration of sleep induced by ketamine,mice; humulone component in alpha acid extract at 21 mg/kg,increase
same,"duration of sleep induced by ketamine, additional effect at higher dose",mice; humulone component in alpha acid extract at 42 mg/kg,no additional effect
same,LD50,rats; i.m. (rats),600 mg/kg/b.w.
same,LD50,"rats; p.o., rodents","1,500 mg/kg/b.w."
same,duration of sleep induced by ethanol,"BALB/cAnNRj mice [9]; humulone 10 mg/kg i.p., p < 0.05",significantly increased
same,duration of sleep induced by ethanol,"BALB/cAnNRj mice [9]; humulone 20 mg/kg i.p., p < 0.001",significantly increased
same,onset of sleep induced by ethanol,BALB/cAnNRj mice [9]; humulone 10 or 20 mg/kg i.p.,no effect
